For 15 compounds, IC50 results are on record in patent publication US20240409585A1, “MACROCYCLIC IMMUNOMODULATORS” (priority 2021, published 2024).

The target of the assay is T1, PE-labeled human PD-L1-Ig binding to Jurkat cell line over-expressing human PD-1 (Jurkat-PD-1) (Homo sapiens, UniProt Q15116).
T1 construct: expressed in transfected cells; host or cells: Jurkat
The assay can be described thus: Jurkat-PD-1 Cell Binding High-Content Screening Assay (CBA): Method 1. The following applies: Jurkat-hPD-1 cells, PE-labeled PD-L1-Ig 20 nM final.

The mark [1] stands for this setting: read-out: Jurkat HPDL1 PD1 IC50 (uM) (Method 1).

Like-named read-outs stand apart in the source and are kept apart here. Numbered stars: 1 amine (or outer) side, 2 acyl side, 3 side chain; on linkers, the order of the positions; unused ones are H or OH. Bridge positions count the residues as written; N and C are the ends. Square brackets hold non-standard residues; d marks the D form. Peptide text beside a SMILES is read from it. * marks the point of attachment. ξ: configuration not given here. X46 = COCc1ccc(-c2ccc(C[C@H](N[*:1])C(=O)[*:2])cc2)cc1; Bip = N[C@@H](Cc1ccc(-c2ccccc2)cc1)C(=O)O; Lys(Me3) = C[N+](C)(C)CCCC[C@H](N)C(=O)O; Phe(3-CN) = N#Cc1cccc(C[C@H](N)C(=O)O)c1; Phe(3-Cl) = N[C@@H](Cc1cccc(Cl)c1)C(=O)O; Phe(4-CN) = N#Cc1ccc(C[C@H](N)C(=O)O)cc1; Phe(3-Me) = Cc1cccc(C[C@H](N)C(=O)O)c1; Phe(2-F) = N[C@@H](Cc1ccccc1F)C(=O)O; Bta = N[C@@H](Cc1csc2ccccc12)C(=O)O; 4Pal = N[C@@H](Cc1ccncc1)C(=O)O; Cit = NC(=O)NCCC[C@H](N)C(=O)O; Ile(3ξ) = CCC(C)[C@H](N)C(=O)O; Thr(3ξ) = CC(O)[C@H](N)C(=O)O; Dap(Me) = CNC[C@H](N)C(=O)O; Carboxymethyl = O=C(O)C*; NMeA = CN[C@@H](C)C(=O)O; Orn = NCCC[C@H](N)C(=O)O; Dab = NCC[C@H](N)C(=O)O; Dap = NC[C@H](N)C(=O)O; ξC = NC(CS)C(=O)O

T1 sequence (Q15116 25-288): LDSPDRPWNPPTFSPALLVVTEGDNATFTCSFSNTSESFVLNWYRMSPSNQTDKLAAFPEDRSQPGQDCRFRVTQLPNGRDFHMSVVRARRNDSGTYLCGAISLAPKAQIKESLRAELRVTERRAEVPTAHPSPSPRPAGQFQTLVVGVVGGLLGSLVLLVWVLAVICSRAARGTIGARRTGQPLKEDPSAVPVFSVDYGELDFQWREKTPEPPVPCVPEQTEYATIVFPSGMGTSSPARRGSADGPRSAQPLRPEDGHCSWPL

One may read the IC50 as the concentration that inhibits the measured activity by half. Compound `Cc1cccc(C[C@@H]2NC(=O)[C@H](CC(=O)O)NC(=O)[C@H](Cc3ccccc3)NC(=O)[C@H](CN)NC(=O)CSC[C@@H](C(=O)N[C@@H](C)C(N)=O)NC(=O)[C@H](CO)NC(=O)[C@H](Cc3ccccc3)NC(=O)[C@H](CC(C)C)NC(=O)[C@H](CC(N)=O)NC(=O)[C@@H](CC(C)C)NC(=O)[C@H](C)N(C)C(=O)[C@H](Cc3ccccc3)NC(=O)[C@H](Cc3ccc(-c4ccccc4)cc3)NC(=O)[C@H](CC(C)C)NC2=O)c1` [Compound 1594] ({CH2CO}-[Dap]FD[Phe(3-Me)]L[Bip]F[NMeA][dL]NLFSCA-NH2; thioether N-14) came in with an IC50 (Jurkat HPDL1 PD1 IC50 (uM) (Method 1)) of 0.01 µM.

In the case of `CC(C)C[C@@H]1NC(=O)[C@H](CCCNC(=N)N)NC(=O)[C@@H](CC(C)C)NC(=O)[C@H](C)N(C)C(=O)[C@H](CCCNC(=N)N)NC(=O)[C@H](Cc2ccc(-c3ccccc3)cc2)NC(=O)[C@H](C(C)C)NC(=O)[C@H](Cc2cccc(Cl)c2)NC(=O)[C@H](CC(=O)O)NC(=O)[C@H](Cc2ccc(O)cc2)NC(=O)[C@H](CC(N)=O)NC(=O)CSC[C@@H](C(=O)N[C@@H](C)C(N)=O)NC(=O)[C@H]([C@@H](C)O)NC(=O)[C@H](C(C)C)NC1=O` [Compound 1127] ({CH2CO}-NYD[Phe(3-Cl)]V[Bip]R[NMeA][dL]RLVTCA-NH2; thioether N-14), the IC50 under setting [1] was 0.09 µM.

Consider `CC(C)C[C@@H]1NC(=O)[C@H](CCN)NC(=O)[C@@H](CC(C)C)NC(=O)[C@H](C)N(C)C(=O)[C@H](CCCNC(N)=O)NC(=O)[C@H](Cc2ccc(-c3ccccc3)cc2)NC(=O)[C@H](C(C)C)NC(=O)[C@H](Cc2c[nH]c3ccccc23)NC(=O)[C@H](CC(=O)O)NC(=O)[C@H](Cc2cccc(C#N)c2)NC(=O)[C@H](CC(N)=O)NC(=O)CSC[C@@H](C(=O)N[C@@H](C)C(N)=O)NC(=O)[C@H]([C@@H](C)O)NC(=O)[C@H](C(C)C)NC1=O` [Compound 1314] ({CH2CO}-N[Phe(3-CN)]DWV[Bip][Cit][NMeA][dL][Dab]LVTCA-NH2; thioether N-14), for which the IC50 under setting [1] came out at 0.04 µM.

In the case of `Cc1cccc(C[C@@H]2NC(=O)[C@H](CC(=O)O)NC(=O)[C@H](Cc3ccc(OCC(=O)O)cc3)NC(=O)[C@H](CN)NC(=O)CSC[C@@H](C(=O)N[C@@H](C)C(N)=O)NC(=O)[C@H](CO)NC(=O)[C@H](C(C)C)NC(=O)[C@H](CC(C)C)NC(=O)[C@H](CC(N)=O)NC(=O)[C@@H](C)NC(=O)[C@H](C)N(C)C(=O)[C@H](C(C)C)NC(=O)[C@H](Cc3ccc(-c4ccccc4)cc3)NC(=O)[C@H](CC(C)C)NC2=O)c1` [Compound 1582] ({CH2CO}-[Dap]Y(Carboxymethyl)D[Phe(3-Me)]L[Bip]V[NMeA][dA]NLVSCA-NH2; thioether N-14), under setting [1], the IC50 amounted to 0.02 µM.

As to `CC(C)C[C@@H]1NC(=O)[C@H](CCCNC(=N)N)NC(=O)[C@H](Cc2csc3ccccc23)NC(=O)[C@H](C)N(C)C(=O)[C@H](CCCNC(=N)N)NC(=O)[C@H](Cc2ccc(-c3ccccc3)cc2)NC(=O)[C@H](C(C)C)NC(=O)[C@H](Cc2c[nH]c3ccccc23)NC(=O)[C@H](CC(=O)O)NC(=O)[C@H](Cc2ccc(O)cc2)NC(=O)[C@H](CC(N)=O)NC(=O)CSC[C@@H](C(=O)NCC(N)=O)NC(=O)[C@H](CO)NC(=O)[C@H](C(C)C)NC1=O` [Compound 1026] ({CH2CO}-NYDWV[Bip]R[NMeA][Bta]RLVSCG-NH2; thioether N-14), the IC50 under setting [1] amounted to 0.13 µM.

For `CC(C)C[C@@H]1NC(=O)[C@H](CCCN)NC(=O)[C@@H](CC(C)C)NC(=O)[C@H](C)N(C)C(=O)[C@H](CCCNC(=N)N)NC(=O)[C@H](Cc2ccc(-c3ccccc3)cc2)NC(=O)[C@H](C(C)C)NC(=O)[C@H](Cc2c[nH]c3ccccc23)NC(=O)[C@H](CC(=O)O)NC(=O)[C@H](Cc2ccc(O)cc2)NC(=O)[C@H](Cc2cnc[nH]2)NC(=O)CSC[C@@H](C(=O)N[C@@H](C)C(N)=O)NC(=O)[C@H]([C@@H](C)O)NC(=O)[C@H](C(C)C)NC1=O` [Compound 1144] ({CH2CO}-HYDWV[Bip]R[NMeA][dL][Orn]LVTCA-NH2; thioether N-14), the IC50 under setting [1] turned out to be 0.05 µM.

Take `CC(C)C[C@@H]1NC(=O)[C@H](Cc2c[nH]c3ccccc23)NC(=O)[C@H](CC(=O)O)NC(=O)[C@H](Cc2ccc(O)cc2)NC(=O)[C@H](Cc2ccccc2)NC(=O)CSC[C@@H](C(=O)N[C@@H](C)C(N)=O)NC(=O)[C@H]([C@@H](C)O)NC(=O)[C@H](CN)NC(=O)[C@H](CC(C)C)NC(=O)[C@H](CC(N)=O)NC(=O)[C@@H](C)NC(=O)[C@H](C)N(C)C(=O)[C@H](C(C)C)NC(=O)[C@H](Cc2ccc(-c3ccccc3)cc2)NC1=O` [Compound 1535] ({CH2CO}-FYDWL[Bip]V[NMeA][dA]NL[Dap]TCA-NH2; thioether N-14): the IC50 under setting [1] came to 0.36 µM.

On to `CCC(C)[C@@H]1NC(=O)[C@H](Cc2ccc(-c3ccccc3)cc2)NC(=O)[C@H](C(C)C)NC(=O)[C@H](Cc2cccc(C)c2)NC(=O)[C@H](CC(=O)O)NC(=O)[C@H](Cc2ccc(OCC(=O)O)cc2)NC(=O)[C@H](CCCC[N+](C)(C)C)NC(=O)CSCC(C(=O)NCC(N)=O)NC(=O)[C@H](CO)NC(=O)[C@H](C(C)C)NC(=O)[C@H](CC(C)C)NC(=O)[C@H](CC(N)=O)NC(=O)[C@@H](CC(C)C)NC(=O)[C@H](C)N(C)C1=O` (stereo partly drawn) [Compound 2064] ({CH2CO}-[Lys(Me3)]Y(Carboxymethyl)D[Phe(3-Me)]V[Bip][Ile(3ξ)][NMeA][dL]NLVS[ξC]G-NH2; thioether N-14), for which the IC50 under setting [1] turned out to be 0.04 µM.

On to `CC(C)C[C@@H]1NC(=O)[C@H](CCCNC(=N)N)NC(=O)[C@@H](Cc2ccccc2)NC(=O)[C@H](C)N(C)C(=O)[C@H](CCCNC(=N)N)NC(=O)[C@H](Cc2ccc(-c3ccccc3)cc2)NC(=O)[C@H](C(C)C)NC(=O)[C@H](Cc2c[nH]c3ccccc23)NC(=O)[C@H](CC(=O)O)NC(=O)[C@H](Cc2ccc(O)cc2)NC(=O)[C@H](CC(N)=O)NC(=O)CSC[C@@H](C(=O)N[C@@H](C)C(N)=O)NC(=O)[C@H](CO)NC(=O)[C@H](C(C)C)NC1=O` [Compound 1042] ({CH2CO}-NYDWV[Bip]R[NMeA][dF]RLVSCA-NH2; thioether N-14), for which the IC50 under setting [1] was 0.04 µM.

Consider `CC(C)C[C@@H]1NC(=O)[C@H](CCN)NC(=O)[C@@H](CC(C)C)NC(=O)[C@H](C)N(C)C(=O)[C@H](Cc2cnc[nH]2)NC(=O)[C@H](Cc2ccc(-c3ccccc3)cc2)NC(=O)[C@H](C(C)C)NC(=O)[C@H](Cc2c[nH]c3ccccc23)NC(=O)[C@H](CC(=O)O)NC(=O)[C@H](Cc2ccc(C#N)cc2)NC(=O)[C@H](CN)NC(=O)CSC[C@@H](C(=O)N[C@@H](C)C(N)=O)NC(=O)[C@H]([C@@H](C)O)NC(=O)[C@H](C(C)C)NC1=O` [Compound 1433] ({CH2CO}-[Dap][Phe(4-CN)]DWV[Bip]H[NMeA][dL][Dab]LVTCA-NH2; thioether N-14), for which the IC50 under setting [1] turned out to be 0.16 µM.

Regarding `CC(C)C[C@@H]1NC(=O)[C@H](CCCCN)NC(=O)[C@@H](CC(C)C)NC(=O)[C@H](C)N(C)C(=O)[C@H](CCCNC(=N)N)NC(=O)[C@H](Cc2ccc(-c3ccccc3)cc2)NC(=O)[C@H](C(C)C)NC(=O)[C@H](Cc2c[nH]c3ccccc23)NC(=O)[C@H](CC(=O)O)NC(=O)[C@H](Cc2ccc(O)cc2)NC(=O)[C@H](CC(N)=O)NC(=O)CSC[C@@H](C(=O)N[C@@H](C)C(N)=O)NC(=O)[C@H]([C@@H](C)O)NC(=O)[C@H](C(C)C)NC1=O` [Compound 1280] ({CH2CO}-NYDWV[Bip]R[NMeA][dL]KLVTCA-NH2; thioether N-14), the IC50 under setting [1] stood at 0.08 µM.

As for `CC(C)C[C@@H]1NC(=O)[C@H](CCN)NC(=O)[C@@H](CC(C)C)NC(=O)[C@H](C)N(C)C(=O)[C@H](CCCNC(=N)N)NC(=O)[C@H](Cc2ccc(-c3ccccc3)cc2)NC(=O)[C@H](C(C)C)NC(=O)[C@H](Cc2c[nH]c3ccccc23)NC(=O)[C@H](CC(=O)O)NC(=O)[C@H](Cc2ccc(OCC(=O)O)cc2)NC(=O)[C@H](Cc2ccncc2)NC(=O)CSC[C@@H](C(=O)N[C@@H](C)C(N)=O)NC(=O)[C@H]([C@@H](C)O)NC(=O)[C@H](C(C)C)NC1=O` [Compound 1443] ({CH2CO}-[4Pal]Y(Carboxymethyl)DWV[Bip]R[NMeA][dL][Dab]LVTCA-NH2; thioether N-14), the IC50 under setting [1] stood at 0.01 µM.

For `CNC[C@@H]1NC(=O)CSC[C@@H](C(=O)N[C@@H](C)C(N)=O)NC(=O)[C@H](C(C)O)NC(=O)[C@H](C(C)C)NC(=O)[C@H](CC(C)C)NC(=O)[C@H](CCN)NC(=O)[C@@H](CC(C)C)NC(=O)[C@H](C)N(C)C(=O)[C@H](C(C)C)NC(=O)[C@H](Cc2ccc(-c3ccccc3)cc2)NC(=O)[C@H](C(C)C)NC(=O)[C@H](Cc2c[nH]c3ccccc23)NC(=O)[C@H](CC(=O)O)NC(=O)[C@H](Cc2ccc(O)cc2)NC1=O` (stereo partly drawn) [Compound 2041] ({CH2CO}-[Dap(Me)]YDWV[Bip]V[NMeA][dL][Dab]LV[Thr(3ξ)]CA-NH2; thioether N-14), under setting [1], the IC50 is 0.02 µM.

As for `CC(C)C[C@@H]1NC(=O)[C@H](CCN)NC(=O)[C@@H](CC(C)C)NC(=O)[C@H](C)N(C)C(=O)[C@H](CCCNC(=N)N)NC(=O)[C@H](Cc2ccc(-c3ccccc3)cc2)NC(=O)[C@H](C(C)C)NC(=O)[C@H](Cc2c[nH]c3ccccc23)NC(=O)[C@H](CC(=O)O)NC(=O)[C@H](Cc2ccccc2F)NC(=O)[C@H](CN)NC(=O)CSC[C@@H](C(=O)N[C@@H](C)C(N)=O)NC(=O)[C@H]([C@@H](C)O)NC(=O)[C@H](C(C)C)NC1=O` [Compound 1454] ({CH2CO}-[Dap][Phe(2-F)]DWV[Bip]R[NMeA][dL][Dab]LVTCA-NH2; thioether N-14), under setting [1], the IC50 stood at 0.02 µM.

For `COCc1ccc(-c2ccc(C[C@@H]3NC(=O)[C@H](C(C)C)NC(=O)[C@H](Cc4c[nH]c5ccccc45)NC(=O)[C@H](CC(=O)O)NC(=O)[C@H](Cc4ccc(O)cc4)NC(=O)[C@H](CC(N)=O)NC(=O)CSC[C@@H](C(=O)N[C@@H](C)C(N)=O)NC(=O)[C@H]([C@@H](C)O)NC(=O)[C@H](C(C)C)NC(=O)[C@H](CC(C)C)NC(=O)[C@H](CCN)NC(=O)[C@@H](CC(C)C)NC(=O)[C@H](C)N(C)C(=O)[C@H](CCCNC(=N)N)NC3=O)cc2)cc1` [Compound 1205] ({CH2CO}-NYDWV[X46]R[NMeA][dL][Dab]LVTCA-NH2; thioether N-14), the IC50 under setting [1] was found to be 0.81 µM.
